From patent publication US20200046774A1, “COMPOSITION FOR PREVENTING OR TREATING BONE DISEASES WHICH HAS EXCELLENT BONE REGENERATION EFFECT” (KOREA UNIVERSITY RESEARCH AND BUSINESS FOUNDATION, priority 2017, published 2020)

Experiments:
[1] = tested on: TDF cell line of Example 3; assay: Evaluation of apoptosis by gancyclovir treatment (HSV-tk kill switch); format: cell-based; conditions: 0, 50 and 500 μg/ml, 72 hours to 124 hours; depending on concentration and time; FIGS. 12 and 13
Protocol: TDF cell line of Example 3, a cell line of Example 3 was treated with gancyclovir in concentrations of 0 μg/ml, 50 μg/ml and 500 μg/ml, respectively, and the number of cells was observed and analyzed for a period of 72 hours to 124 hours, as shown in FIGS. 12 and 13.

[2] = tested on: alkaline phosphatase (ALP); assay: ALP activity (early osteogenic induction ability), OIM or GM culture; conditions: 1 ng/ml, 2 ng/ml and 5 ng/ml of BMP-2, 7 days after induction of osteogenesis, versus control not treated with BMP-2; FIG. 4
Protocol: After 3 days and 7 days of the culturing, samples were washed twice with a PBS solution, and dissolved in a cell lysis buffer to which 0.1% Triton X-10 was added.
Lysed cells were centrifuged at 4° C. and 13000 rpm for 30 minutes, and then a supernatant was recovered and quantitated by a Bradford assay. The ALP activity was measured at 405 nm for the same amount of proteins using an ALP kit (AnaSpec), and the results are shown in FIG. 3.

[3] = tested on: HGPRT knockout cell line of Example 14; conditions: after 9 days of 6-TG treatment, in comparison to the TDF cell line of Example 3; FIG. 20

## Nc1nc(O)c2ncn(COC(CO)CO)c2n1 [ganciclovir]
[1]
  cell growth / number of cells under gancyclovir: cell growth is inhibited

## BMP-2
[2]
  ALP activity of normal TDF cell line with BMP-2 injected from the outside: statistically significant ALP activity was not observed

## Nc1nc2[nH]cnc2c(=S)[nH]1 [Example 6-TG, 6-tioguanine]
[3]
  cell survival under 6-TG treatment: more cells survived
